Measurements published in the supplement of paper PMC10307832.

Columns and labels:
Assay in all cases: relative viability (nuclei count vs DMSO), 5 days (fraction); higher = more cells survive
[1] = compound: C1/C(=C\C2=CC=CS2)/C(=O)/C(=C/C3=CC=CS3)/C1 + C[C@@H](Oc1cc(-c2cnn(C3CCNCC3)c2)cnc1N)c1c(Cl)ccc(F)c1Cl [Crizotinib] (partner 1 µM)
Summary of the method: (§1)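 Five library-drug doses in √10 steps were combined with a fixed anchor-drug dose, or a single drug was given alone, by pin tool to lung cancer cell lines in 1536-well plates the day after seeding. Nuclei were stained and counted after 5 days. Relative viability is the nuclei count in treated wells over that in vehicle wells, taken as the median of duplicate plates.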

TPCA-1 + Palbociclib = compound: C1=CC(=CC=C1C2=CC(=C(S2)NC(=O)N)C(=O)N)F [TPCA-1] + CC(=O)c1c(C)c2cnc(Nc3ccc(N4CCNCC4)cn3)nc2n(C2CCCC2)c1=O [Palbociclib] (partner 0.5 µM)
Summary of the method: as §1

[2] = compound: C[C@]12O[C@H](C[C@]1(O)CO)n1c3ccccc3c3c4c(c5c6ccccc6n2c5c31)CNC4=O [Lestaurtinib] + N=C(N)NC(=N)NCCc1ccccc1 [Phenformin] (partner 250 µM)
Summary of the method: as §1

Lestaurtinib + Olaparib = compound: C[C@]12O[C@H](C[C@]1(O)CO)n1c3ccccc3c3c4c(c5c6ccccc6n2c5c31)CNC4=O [Lestaurtinib] + O=C(c1cc(Cc2n[nH]c(=O)c3ccccc23)ccc1F)N1CCN(C(=O)C2CC2)CC1 [Olaparib] (partner 8 µM)
Summary of the method: as §1

Cell Line: UMC-11
- relative viability ([1]; first compound 0.2 µM): 0.62
- relative viability ([1]; first compound 0.6325 µM): 0.685
- relative viability ([1]; first compound 2 µM): 0.687
- relative viability ([1]; first compound 20 µM): 0.571
- relative viability (TPCA-1 + Palbociclib; first compound 0.04 µM): 0.354
- relative viability (TPCA-1 + Palbociclib; first compound 0.1265 µM): 0.316
- relative viability (TPCA-1 + Palbociclib; first compound 0.4 µM): 0.299
- relative viability (TPCA-1 + Palbociclib; first compound 1.265 µM): 0.408
- relative viability (TPCA-1 + Palbociclib; first compound 4 µM): 0.289
- relative viability ([2]; first compound 0.005 µM): 0.359
- relative viability ([2]; first compound 0.01581 µM): 0.327
- relative viability ([2]; first compound 0.05 µM): 0.239
- relative viability ([2]; first compound 0.1581 µM): 0.176
- relative viability ([2]; first compound 0.5 µM): 0.144
- relative viability (Lestaurtinib + Olaparib; first compound 0.005 µM): 0.402
- relative viability (Lestaurtinib + Olaparib; first compound 0.01581 µM): 0.466
- relative viability (Lestaurtinib + Olaparib; first compound 0.05 µM): 0.384
- relative viability (Lestaurtinib + Olaparib; first compound 0.1581 µM): 0.273
- relative viability (Lestaurtinib + Olaparib; first compound 0.5 µM): 0.171
